In patent publication US7579370B2, “Fused heterocycles” (Sepracor Inc., priority 2006, dated 2009):

Tests used:
[1] = target: Human DAAO (Homo sapiens, UniProt P14920); test: D-Amino Acid Oxidase enzyme assay (D-serine, horseradish peroxidase/Amplex Red coupled); assay type: biochemical; details: D-serine 5 mM, pH 7.4; read-out: Human DAAO Inhibition [IC50]
Method: This coupled reaction uses the enzyme substrate Amplex Red (Molecular Probes), which is converted to the fluorescent reaction product, resorufin (excitation 530-560 nm; emission ˜590 nm). Although DAAO has a higher pH optimum, all reagents were prepared in 50 mM sodium phosphate buffer at pH 7.4 and inhibition curves were generated at this pH.
The reactions were initiated by addition of DAAO enzyme while the fluorescence was monitored. […] Inhibition curves were generated in the presence of varying concentrations of the inhibitor and IC50 values were calculated for each inhibitor.

[2] = test system: Sprague-Dawley rats; test: Rat Chung model (L5 spinal nerve ligation), paw withdrawal threshold with von Frey hairs; assay type: in vivo
Method: Adult male Sprague-Dawley rats, weighing 200-230 g at the time of surgery, were used. They were housed in groups of 4 in an air-conditioned room on a 12 h light/dark cycle. Food and water were available ad libitu. The animals were allowed to acclimatize to the experimental environment for three days by leaving them on a lifted metal mesh for at least 40 min. The baseline paw withdrawal threshold (PWT) was examined using a series of graduated von Frey hairs for 3 consecutive days before surgery and re-assessed on the 7th day after surgery and on the 11th to 14th day before drug dosing. The rat Chung model was prepared as described by Kim and Chung (1992). The rat was anaesthetized with 5% isoflurane mixed with oxygen (2 L per min) followed by an i.p. injection of sodium pentobarbitone at 50 mg/kg. The back was shaved and sterilized with 75% ethanol. The animal was placed in a prone position and a para-medial incision was made on the skin covering L4-6 level. The L5 spinal nerve was carefully isolated and tightly ligated with 6/0 silk suture. The wound was then closed in layers after a complete hemostasis. A single dose of antibiotics (Amoxipen 15 mg/rat, ip) was routinely given for prevention of infection after surgery. The animals were placed in a temperature controlled recovery chamber until fully awake before being returned to the home cage. The animals were placed in individual Perspex boxes on a raised metal mesh for at least 40 min before the test. Starting with the filament of lowest force, each filament was applied perpendicularly to the center of the ventral surface of the paw until slightly bent for 6 seconds. If the animal withdrew or lifted the paw upon stimulation, then a hair with force immediately lower than that tested was used. If no response was observed, then a hair with force immediately higher was tested. The lowest amount of force required to induce reliable responses (positive in 3 out of 5 trials) was recorded as the value of PWT. Only those animals with significant allodynia (PWT≦3.5 g) were selected for drug dosing experiments. The rats in a neuropathic pain state were randomly divided into experimental groups: Vehicle group and 1 group had 8 rats and the gabapentin group had 9 rats. The drug test was carried out 12 to 14 days after surgery. Isotonic 50 mM phosphate buffer (PB), dosed orally at 3 mL/kg, served as the vehicle control. Gabapentin was dissolved in normal saline and given orally at 100 mg/kg. […] The PWT was assessed at 1, 3, 6 and 24 h following drug or vehicle administration. The animals were returned to their home cage for a break (about 30 min) between two neighboring testing time points. One-way analysis of variance (ANOVA) (SPSS software) was used for statistical analysis to compare different groups on the same time points. Paired Student -t test was used to compare different time points in the same group. The significance level was set at P<0.05.

Human DAAO, sequence (P14920 whole entry): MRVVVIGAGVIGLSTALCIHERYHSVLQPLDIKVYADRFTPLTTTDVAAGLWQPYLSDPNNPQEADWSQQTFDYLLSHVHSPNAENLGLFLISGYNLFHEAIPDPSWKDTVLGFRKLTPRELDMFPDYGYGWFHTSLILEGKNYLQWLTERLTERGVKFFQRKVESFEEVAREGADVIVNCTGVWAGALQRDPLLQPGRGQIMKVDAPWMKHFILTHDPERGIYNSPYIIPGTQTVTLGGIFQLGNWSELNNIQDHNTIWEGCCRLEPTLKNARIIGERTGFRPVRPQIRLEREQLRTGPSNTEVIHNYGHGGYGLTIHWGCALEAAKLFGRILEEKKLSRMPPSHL

Row | Structure (SMILES) | IC50 [1] | further results
1 | C/C=C\c1coc2cc(C(=O)O)[nH]c12 [Compound 46, (Z)-3-(prop-1-enyl)-4H-furo[3,2-b]pyrrole-5-carboxylic acid] | < 100 µM | 
2 | C=Cc1coc2cc(C(=O)O)[nH]c12 [Compound 32, 3-vinyl-4H-furo[3,2-b]pyrrole-5-carboxylic acid] | < 0.1 µM | 
3 | O=C(O)c1cc2oc(Cc3ccccc3)cc2[nH]1 [Compound 24, 2-benzyl-4H-furo[3,2-b]pyrrole-5-carboxylic acid] | < 100 µM | 
4 | NCC1(CC(=O)O)CCCCC1 [Gabapentin] |  | Course of the effect on PWT after the peak ([2]; orally dosed at 100 mg/kg): gradually declined from 6 hours onwards; Time at which the effect on PWT commenced after dosing ([2]; orally dosed at 100 mg/kg): first hour; Time of peak effect on PWT after dosing ([2]; orally dosed at 100 mg/kg): 3 h; Effect on paw withdrawal threshold (PWT) ([2]; orally dosed at 100 mg/kg, positive control): significantly increased the PWT
5 | O=C(O)c1cc2occ(Cc3ccccc3)c2[nH]1 [Compound 26, 3-benzyl-4H-furo[3,2-b]pyrrole-5-carboxylic acid] | < 100 µM | 
6 | O=C(O)c1cc2occ(CCc3ccccc3)c2[nH]1 [Compound 17, 3-phenethyl-4H-furo[3,2-b]pyrrole-5-carboxylic acid] | < 1 µM | 
7 | O=C(O)c1cc2occc2[nH]1 [Compound 11, 4H-Furo[3,2-b]pyrrole-5-carboxylic acid] |  | Effect on paw withdrawal threshold (PWT) ([2]; oral dose of 10 mg/kg): significantly elevated the PWT
8 | O=C(O)c1cc2occ(/C=C/c3ccccc3)c2[nH]1 [Compound 48, (E)-3-Styryl-4H-furo[3,2-b]pyrrole-5-carboxylic acid] | < 100 µM | 
